The assay deals with T1, human glycine transporter-2 (GlyT2) (Homo sapiens, UniProt Q9Y345).
T1 construct: The entire coding region of the human GlyT2 cDNA was cloned into the mammalian expression vector pCINeo; expressed in transfected cells; host or cells: Cos-7 cells (African green monkey kidney), stably transfected, vector pCINeo, G418 selection
T1 sequence (Q9Y345 1-797): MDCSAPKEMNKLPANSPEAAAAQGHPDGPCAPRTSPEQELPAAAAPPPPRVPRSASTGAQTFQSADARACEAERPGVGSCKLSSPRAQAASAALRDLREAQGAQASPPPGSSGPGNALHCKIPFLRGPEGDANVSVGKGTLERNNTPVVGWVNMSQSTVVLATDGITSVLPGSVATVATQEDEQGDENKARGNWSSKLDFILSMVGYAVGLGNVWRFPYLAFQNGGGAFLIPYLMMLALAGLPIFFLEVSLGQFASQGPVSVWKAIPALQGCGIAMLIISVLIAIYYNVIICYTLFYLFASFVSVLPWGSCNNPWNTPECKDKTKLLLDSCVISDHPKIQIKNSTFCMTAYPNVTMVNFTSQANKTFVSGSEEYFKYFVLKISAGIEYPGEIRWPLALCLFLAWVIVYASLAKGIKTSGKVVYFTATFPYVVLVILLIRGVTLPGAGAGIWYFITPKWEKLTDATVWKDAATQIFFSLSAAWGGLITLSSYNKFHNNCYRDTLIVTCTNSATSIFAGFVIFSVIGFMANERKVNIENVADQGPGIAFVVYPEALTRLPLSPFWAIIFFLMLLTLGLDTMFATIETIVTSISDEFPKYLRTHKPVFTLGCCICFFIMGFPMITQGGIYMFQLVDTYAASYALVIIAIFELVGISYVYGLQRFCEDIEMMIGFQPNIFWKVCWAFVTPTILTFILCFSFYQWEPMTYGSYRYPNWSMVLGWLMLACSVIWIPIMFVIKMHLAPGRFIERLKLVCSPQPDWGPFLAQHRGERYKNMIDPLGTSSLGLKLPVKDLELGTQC
Description: GlyT2 inhibitory activity: inhibition of [14C]-glycine uptake in COS-7 cells transfected with human GlyT2. The class given is cell-based. Conditions: Cos-7 cells stably transfected with human GlyT2; 20 μM 14C-glycine, 2 h at 37° C. The procedure: GlyT2 antagonist activity of representative compounds of the invention was determined in accordance with the assay described in the Examples and by measuring the ability of compounds to inhibit the uptake of [^14C]-glycine in COS-7 cells transfected with the human glycine transporter-2 (GlyT2). The GlyT2 antagonist activities of these representative compounds are set forth hereinafter in Table 1.
Cos-7 cells (African green monkey, kidney) from American Type Culture Collection were grown in DMEM supplemented with 10% fetal bovine serum. The entire coding region of the human GlyT2 cDNA was cloned into the mammalian expression vector pCINeo, and then stably transfected into Cos-7 cells. Transfection was performed essentially as described by T. W. Lovenberg et al. (Mol. Pharmacol. 1999, 55:1101-1107). Cells are grown to 70-80% confluence, removed from the plate with trypsin, and pelleted in a clinical centrifuge. The pellet is resuspended in 400 μL complete medium and transferred to an electroporation cuvette with a 0.4 cm gap between the electrodes (Bio-Rad, 165-2088). One microgram of supercoiled GlyT2 cDNA is added to the cells, and the suspension is mixed. The voltage for the electroporation is set at 0.25 kV, and the capacitance is set at 960 μF. After electroporation, the cuvette contents are diluted to 10 mL with complete medium, and 0.5 mL, 1.0 mL, 2.0 mL and remainder (−6.5 mL) portions are plated onto four 10-cm dishes. The cells are incubated 24 h before adding 600 μg/mL G418. Colonies that survive selection are isolated and tested for GlyT2 expression.
The day before the assay, the GlyT2 expressing cells were plated into 96-well scintillating microplates (Amersham, RPNQ 0160) at a density of approximately 20,000 cells per well. Cells were grown overnight at 37° C. in 5% CO2 and then washed once with 37° C. HEPES buffered saline (HBS: 150 mM NaCl, 20 mM HEPES, 1 mM CaCl2, 10 mM glucose, 5 mM KCl, 1 mM MgCl2; pH 7.4). Eighty microliters of 37° C. HBS was subsequently added to each well. Test solutions of GlyT2 inhibitors were prepared in HBS from DMSO stock solutions, and 5 μL of test solution was added to each test well. Total transport and non-specific background were determined by adding 5 μL HBS or 5 μL 2 M glycine, respectively, to the appropriate control wells. Plates were then left at room temperature for 5 min before the addition of 20 μL of 100 μM ^14C-glycine (NEN, NEC 048H) to each well for a final concentration of 20 μM. Plates were incubated for 2 h at 37° C. with 5% CO2. After 2 h the reaction mixtures were removed by aspiration, and the plates were washed once with ice-cold HBS. Plates were sealed with TopSeal (Packard, 6005185) and counted on a Packard TopCount® scintillation counter.
Turning to `CC(C)Oc1ccccc1N(C)CCNCc1cccc(C(=O)N2CCCCC2)c1` [Example 28, [3-({2-[(2-Isopropoxy-phenyl)-methyl-amino]-ethylamino}-methyl)-phenyl]-piperidinyl-methanone], the IC50 is 3.5 µM. With `CC(C)Oc1ccccc1N(C)CCN(C)Cc1cccc(C(=O)N2CCCCC2)c1` [Example 29, {3-[({2-[(2-Isopropoxy-phenyl)-methyl-amino]-ethyl}-methyl-amino)-methyl]-phenyl}-piperidin-1-yl-methanone], the IC50 was over 10 µM. In turn, `CC(C)Oc1cccc(NCCN(C)Cc2cccc(C(=O)N3CCCCC3)c2)c1` [Example 30, [3-({[2-(3-Isopropoxy-phenylamino)-ethyl]-methyl-amino}-methyl)-phenyl]-piperidin-1-yl-methanone] came in with an IC50 of 1 µM. For the compound `CC(C)Oc1cccc(N(C)CCN(C)Cc2cccc(C(=O)N3CCCCC3)c2)c1` [Example 31, {3-[({2-[(3-Isopropoxy-phenyl)-methyl-amino]-ethyl}-methyl-amino)-methyl]-phenyl}-piperidin-1-yl-methanone], the IC50 stood at 1.6 µM. With `CC(C)Oc1ccccc1CCCNCc1cccc(C(=O)N2CCCCC2)c1` [Example 33, (3-{[3-(2-Isopropoxy-phenyl)-propylamino]-methyl}-phenyl)-piperidin-1-yl-methanone] the figure was 4 µM.

`CC(C)Oc1ccccc1NCCNCc1cc(C(=O)N2CCCCC2)cs1` [Example 34, (5-{[2-(2-Isopropoxy-phenylamino)-ethylamino]-methyl}-thiophen-3-yl)-piperidin-1-yl-Methanone] gave an IC50 of 3.1 µM. Take `Nc1ccccc1NCCNCc1cc(C(=O)N2CCCCC2)cs1` [Example 35, (5-{[2-(2-Amino-phenylamino)-ethylamino]-methyl}-thiophen-3-yl)-piperidin-1-yl-methanone]: the IC50 is over 10 µM. Compound `CC(C)Nc1ccccc1NCCNCc1cc(C(=O)N2CCCCC2)cs1` [Example 36, (5-{[2-(2-Isopropylamino-phenylamino)-ethylamino]-methyl}-thiophen-3-yl)-piperidinyl-methanone] gave an IC50 of 3.1 µM. This lies in the single-digit micromolar range. `CC(C)Oc1ccccc1NCCNCc1cccc(C(=O)N2CCCC2)c1` [Example 38, (3-{[2-(2-Isopropoxy-phenylamino)-ethylamino]-methyl}-phenyl)-pyrrolidin-1-yl-methanone] had an IC50 of 3 µM. As for `CC(C)Oc1ccccc1NCCNCc1cccc(C(=O)N2CCCCCC2)c1` [Example 39, Azepan-1-yl-(3-{[2-(2-isopropoxy-phenylamino)-ethylamino]-methyl}-phenyl)methanone.], the IC50 is 1.8 µM.

`CC(C)Oc1ccccc1NCCNCc1cccc(C(=O)N2CCC(O)CC2)c1` [Example 41, (4-Hydroxy-piperidin-1-yl)-(3-{[2-(2-isopropoxy-phenylamino)-ethylamino]-methyl}-phenyl)-methanone] yielded an IC50 of over 10 µM.

(Values after US7915420B2, “Aryl piperidine amides” (Janssen Pharmaceutica NV, priority 2003, dated 2011).)
